{"source": "patent US9616019B2", "about": "“Nanosuspension of a poorly soluble drug via microfluidization process” (Celgene Corporation, priority 2009, dated 2017)", "test": "Particle size distribution by laser diffraction particle size analyzer", "assay_type": "physicochemical", "experimental": "The particle size distribution of the resultant suspensions can be measured using any instrumentation. An example is laser diffraction using a Cilas Particle Size Analyser 1190. The images of the particles can be taken using, for example, the microscope “Olympus”. The resolution rates can be determined, for example, by a pION μDISS Profiler.\nAn aqueous dispersion of cyclopropyl-N-{2-[(1S)-1-(3-ethoxy-4-methoxyphenyl)-2-(methylsulfonyl)ethyl]-3-oxoisoindoline-4-yl}carboxamide up to 200 mg/ml in 0.5% HPMC E5 were able to be processed through the Microfluidizer processor. […] By processing at 27K psi for 100 passes, the mean particle size by volume was reduced from 8.0 μm to 0.39 μm, while by processing at 15K psi, the mean size was 0.91 μm. The D90 of particle size by number was 0.09 μm.\nNanosuspensions were formed by initially stirring the micronized cyclopropyl-N-{2-[(1S)-1-(3-ethoxy-4-methoxyphenyl)-2-(methylsulfonyl)ethyl]-3-oxoisoindoline-4-yl}carboxamide in aqueous excipient solutions including PVP, CMC, HPMC, PEG, PEO, Transcutol, glycerin, and/or various surfactants for wetting and solubilization, followed by passing through a high-shear microfluidizer processor. The particle size distribution of the resultant suspensions was measured by a laser diffraction particle size analyzer. The images of the particles were taken using a microscope.\nAqueous dispersions of cyclopropyl-N-{2-[(1S)-1-(3-ethoxy-4-methoxyphenyl)-2-(methylsulfonyl)ethyl]-3-oxoisoindoline-4-yl}carboxamide up to 200 mg/ml in polymeric excipients were processed with this approach. The 200 mg/mL nanosuspension was physically stable at room temperature for 2 months, based on the images and particle size analysis. The D90 of particle size by number was 0.09 μm. […] Upon dilution from 200 mg/ml to 25 mg/ml with specific surfactants, the solubility increased 40 fold over 40 minutes."}
{"smiles": "CCOc1cc([C@@H](CS(C)(=O)=O)N2Cc3cccc(NC(=O)C4CC4)c3C2=O)ccc1OC", "note": "[cyclopropyl-N-{2-[(1S)-1-(3-ethoxy-4-methoxyphenyl)-2-(methylsulfonyl)ethyl]-3-oxoisoindoline-4-yl}carboxamide]", "values": [{"measurement": "D90 of particle size by number", "value": 0.09, "unit": "μm"}, {"measurement": "mean particle size by volume", "setting": "before microfluidization", "value": 8.0, "unit": "μm"}, {"measurement": "mean particle size", "setting": "optimal process pressure and time", "value": 0.05, "unit": "μm"}, {"measurement": "mean particle size by volume", "setting": "processing at 15K psi", "value": 0.91, "unit": "μm"}, {"measurement": "mean particle size", "setting": "processing at 15K psi (Example 4)", "value": 0.08, "unit": "μm"}, {"measurement": "mean particle size by volume", "setting": "processing at 27K psi for 100 passes, 0.5% HPMC E5", "value": 0.39, "unit": "μm"}, {"measurement": "mean particle size", "setting": "processing at 27K psi for 130 passes", "value": 0.05, "unit": "µm"}]}
